Measurements published in the NIST ThermoML archive (doi:10.1021/je400272k).

Experiment: wn = mass fraction of the nth substance listed
Conditions: Liquid, Vibrating tube method

CCCC[N+](CCCC)(CCCC)CCCC.[Br-] [tetrabutylammonium bromide] + O
mass density [kg/m3]
Conditions | 283.15 K | 285.15 K | 288.15 K | 291.15 K | 293.15 K | 298.15 K | 303.15 K
100 kPa, w1 = 0.1 | 1008.7 | 1008.3 | 1007.6 | 1006.7 | 1006.2 | 1004.9 | 1003.2
100 kPa, w1 = 0.14 | 1012.9 | 1012.6 | 1011.6 | 1010.9 | 1010 | 1008.4 | 1006.3
100 kPa, w1 = 0.2 | 1019.9 | 1019.3 | 1018.1 | 1017 | 1016.3 | 1014.2 | 1011.9
100 kPa, w1 = 0.3 | – | – | 1029 | 1027.4 | 1026.3 | 1023.7 | 1020.7
100 kPa, w1 = 0.4 | – | – | 1038.5 | 1036.7 | 1035.3 | 1031.9 | 1028.6
1000 kPa, w1 = 0.1 | – | – | 1008 | 1007.1 | 1006.7 | 1005.3 | 1003.7
1000 kPa, w1 = 0.14 | – | – | 1012.1 | 1011.2 | 1010.4 | 1008.7 | 1006.6
1000 kPa, w1 = 0.2 | – | – | 1018.6 | 1017.4 | 1016.7 | 1014.5 | 1012.4
1000 kPa, w1 = 0.3 | – | – | 1029.4 | 1027.7 | 1026.8 | 1024 | 1021.2
1000 kPa, w1 = 0.4 | – | – | 1039 | 1037 | 1035.7 | 1032.3 | 1029.2
2000 kPa, w1 = 0.1 | – | – | 1008.4 | 1007.6 | 1007 | 1005.7 | 1004.1
2000 kPa, w1 = 0.14 | – | – | 1012.5 | 1011.6 | 1010.8 | 1009.1 | 1007
2000 kPa, w1 = 0.2 | – | – | 1019 | 1017.8 | 1017 | 1014.9 | 1012.8
2000 kPa, w1 = 0.3 | – | – | 1029.7 | 1028.1 | 1027.1 | 1024.4 | 1021.6
2000 kPa, w1 = 0.4 | – | – | 1039.4 | 1037.4 | 1036 | 1032.7 | 1029.5
3000 kPa, w1 = 0.1 | – | – | 1008.9 | 1008 | 1007.5 | 1006.1 | 1004.5
3000 kPa, w1 = 0.14 | – | – | 1012.9 | 1012 | 1011.2 | 1009.5 | 1007.4
3000 kPa, w1 = 0.2 | – | – | 1019.4 | 1018.2 | 1017.5 | 1015.3 | 1013.2
3000 kPa, w1 = 0.3 | – | – | 1030.1 | 1028.5 | 1027.5 | 1024.8 | 1022
3000 kPa, w1 = 0.4 | – | – | 1039.7 | 1037.8 | 1036.4 | 1033 | 1029.9
4000 kPa, w1 = 0.1 | – | – | 1009.2 | 1008.4 | 1007.9 | 1006.5 | 1005
4000 kPa, w1 = 0.14 | – | – | 1013.3 | 1012.4 | 1011.6 | 1009.9 | 1007.7
4000 kPa, w1 = 0.2 | – | – | 1019.7 | 1018.6 | 1017.8 | 1015.7 | 1013.6
4000 kPa, w1 = 0.3 | – | – | 1030.4 | 1028.8 | 1027.9 | 1025.1 | 1022.4
4000 kPa, w1 = 0.4 | – | – | 1040.1 | 1038.1 | 1036.8 | 1033.3 | 1030.3
5000 kPa, w1 = 0.1 | – | – | 1009.7 | 1008.7 | 1008.3 | 1006.9 | 1005.4
5000 kPa, w1 = 0.14 | – | – | 1013.7 | 1012.7 | 1012.1 | 1010.3 | 1008.1
5000 kPa, w1 = 0.2 | – | – | 1020.1 | 1018.8 | 1018.2 | 1016.1 | 1014
5000 kPa, w1 = 0.3 | – | – | 1030.7 | 1029.1 | 1028.2 | 1025.5 | 1022.7
5000 kPa, w1 = 0.4 | – | – | 1040.4 | 1038.4 | 1037.1 | 1033.7 | 1030.7
